Source: patent US7456223B2, “Treatment of bruxism” (priority 2004, dated 2008)

Key:
skeletal muscle spasm = conditions: after application
From the text: Cyclobenzaprine is a 5-HT2 receptor antagonist and its muscle relaxant effect is due to inhibition of serotonergic neurons.

[1] = taken orally; cited from earlier work
[2] = taken orally; cited from earlier work; remark: listed apart in the source

## CN(C)CCC=C1c2ccccc2C=Cc2ccccc21 [cyclobenzaprine]
Skeletal muscle spasm
  time to clinical improvement (local pain and tenderness, range of motion): ≤ 20 min
[1]
  binding to plasma proteins: highly bound to plasma proteins
[2]
  half life: one to three
